Consider 34 compounds from patent US20230250106A1, “COMPOUNDS AND COMPOSITIONS FOR TREATING CONDITIONS ASSOCIATED WITH STING ACTIVITY” (IFM Due, Inc., priority 2020, published 2023).

Each structure is given as a SMILES string.

The assay has as its system STING pathway. The assay is described as follows: STING reporter assay: luciferase reporter activity in THP1-Dual KO-IFNAR2 cells activated with 2'3'cGAMP. The settings on record: Homo sapiens, 2'3'cGAMP 15 μM, 24 h, read-out: hSTING EC50. The format is cell-based. As for the experimental part: STING pathway activation by the compounds described herein was measured using THP1-Dual™ cells (KO-IFNAR2).
THP1-Dual™ KO-IFNAR2 Cells (obtained from invivogen) were maintained in RPMI, 10% FCS, 5 ml P/S, 2 mM L-glut, 10 mM Hepes, and 1 mM sodium pyruvate. Compounds were spotted in empty 384 well tissue culture plates (Greiner 781182) by Echo for a final concentration of 0.0017-100 μM. Cells were plated into the TC plates at 40 μL per well, 2×10E6 cells/mL. For activation with STING ligand, 2′3′cGAMP (MW 718.38, obtained from Invivogen), was prepared in Optimem media.
The following solutions were prepared for each 1×384 plate: • Solution A: 2 mL Optimem with one of the following stimuli: • 60 μL of 10 mM 2′3′cGAMP→150 μM stock • Solution B: 2 mL Optimem with 60 μL Lipofectamine 2000→Incubate 5 min at RT
2 mL of solution A and 2 ml Solution B was mixed and incubated for 20 min at room temperature (RT). 20 μL of transfection solution (A+B) was added on top of the plated cells, with a final 2′3′cGAMP concentration of 15 μM. The plates were then centrifuged immediately at 340 g for 1 minute, after which they were incubated at 37° C., 5% CO2,>98% humidity for 24 h. Luciferase reporter activity was then measured. EC50 values were calculated by using standard methods known in the art.
Luciferase reporter assay: 10 μL of supernatant from the assay was transferred to white 384-plate with flat bottom and squared wells. One pouch of QUANTI-Luc™ Plus was dissolved in 25 mL of water. 100 μL of QLC Stabilizer per 25 mL of QUANTI-Luc™ Plus solution was added. 50 μL of QUANTI-Luc™ Plus/QLC solution per well was then added. Luminescence was measured on a Platereader (e.g., Spectramax I3X (Molecular Devices GF3637001)).
Luciferase reporter activity was then measured. EC50 values were calculated by using standard methods known in the art.
Consider `O=C(Nc1c[nH]c2cc(F)c(F)cc12)c1ccnc(NCCCC(F)(F)F)n1` [Compound 164, N-(5,6-difluoro-1H-indol-3-yl)-2-((4,4,4-trifluorobutyl)amino)pyrimidine-4-carboxamide], for which the EC50 lay in the range of 1000 to 5000 nM.
The value for `Cc1cc(C(=O)Nc2c[nH]c3cc(F)c(F)cc23)ccc1OC1CC(F)(F)C1` [Compound 165, N-(5,6-difluoro-1H-indol-3-yl)-4-(3,3-difluorocyclobutoxy)-3-methylbenzamide] was 40 to 200 nM; that for `O=C(Nc1c[nH]c2cc(F)c(F)cc12)c1ccc(C2CCC(F)(F)CC2)c(Cl)c1` [Compound 166, 3-chloro-N-(5,6-difluoro-1H-indol-3-yl)-4-(4,4-difluorocyclohexyl)benzamide] was 200 to 1000 nM.
For `O=C(Nc1c[nH]c2cc(F)c(F)cc12)c1ccc(OC2CCCC2)cc1` [Compound 168, 4-(cyclopentyloxy)-N-(5,6-difluoro-1H-indol-3-yl)benzamide] the value was 200 to 1000 nM; for `O=C(Nc1c[nH]c2cc(F)c(F)cc12)c1cccc(NCCCC(F)(F)F)c1` [Compound 169, N-(5,6-difluoro-1H-indol-3-yl)-3-((4,4,4-trifluorobutyl)amino)benzamide], 200 to 1000 nM; for `O=C(Nc1c[nH]c2cc(F)c(F)cc12)c1ccc(Cl)c(OCCCC(F)(F)F)c1` [Compound 170, 4-chloro-N-(5,6-difluoro-1H-indol-3-yl)-3-(4,4,4-trifluorobutoxy)benzamide], 200 to 1000 nM.
For `O=C(Nc1c[nH]c2cc(F)c(F)cc12)c1cccc(OCCCC(F)(F)F)c1` [Compound 171, N-(5,6-difluoro-1H-indol-3-yl)-3-(4,4,4-trifluorobutoxy)benzamide] the value was 200 to 1000 nM.
On to `Cc1ccc(C(=O)Nc2c[nH]c3cc(F)c(F)cc23)cc1OCCCC(F)(F)F` [Compound 172, N-(5,6-difluoro-1H-indol-3-yl)-4-methyl-3-(4,4,4-trifluorobutoxy)benzamide], for which the EC50 was in the range of 200 to 1000 nM.
For `Cc1nc(C(=O)Nc2c[nH]c3cc(F)c(F)cc23)cnc1OCC(F)(F)F` [Compound 173, N-(5,6-difluoro-1H-indol-3-yl)-6-methyl-5-(2,2,2-trifluoroethoxy)pyrazine-2-carboxamide] the value was 1000 to 5000 nM; for `O=C(Nc1c[nH]c2cc(F)c(F)cc12)c1ccc(OCC(F)F)cc1` [Compound 174, N-(5,6-difluoro-1H-indol-3-yl)-4-(2,2-difluoroethoxy)benzamide], 200 to 1000 nM.
As for `Cc1cc(C(=O)Nc2c[nH]c3cc(F)c(F)cc23)cc(N2CCC(F)(F)CC2)n1` [Compound 175, N-(5,6-difluoro-1H-indol-3-yl)-2-(4,4-difluoropiperidin-1-yl)-6-methylisonicotinamide], the 50% effective concentration (EC50) was in the range of 5000 to 100000 nM.
With `O=C(Nc1c[nH]c2cc(F)c(F)cc12)c1ccc(CCC(F)(F)F)c(F)c1` [Compound 176, N-(5,6-difluoro-1H-indol-3-yl)-3-fluoro-4-(3,3,3-trifluoropropyl)benzamide], the half-maximal effective concentration (EC50) is 200 to 1000 nM.
The value for `O=C(Nc1c[nH]c2cc(F)c(F)cc12)c1cccc(OC2CCCCC2)c1` [Compound 179, 3-(cyclohexyloxy)-N-(5,6-difluoro-1H-indol-3-yl)benzamide] was 200 to 1000 nM; that for `CC(C)n1cc(-c2ccc3[nH]cc(NC(=O)c4ccc(OCCCC(F)(F)F)cc4)c3c2)cn1` [Compound 180, N-(5-(1-isopropyl-1H-pyrazol-4-yl)-1H-indol-3-yl)-4-(4,4,4-trifluorobutoxy)benzamide] was 200 to 1000 nM; that for `O=C(Nc1c[nH]c2cc(F)c(F)cc12)c1ccc(CN2CC(F)(F)C2)c(F)c1` [Compound 181, N-(5,6-difluoro-1H-indol-3-yl)-4-((3,3-difluoroazetidin-1-yl)methyl)-3-fluorobenzamide] was 200 to 1000 nM.
For `O=C(Nc1c[nH]c2cc(F)c(F)cc12)c1cnc(N2CCC(OC(F)(F)F)CC2)cn1` [Compound 182, N-(5,6-difluoro-1H-indol-3-yl)-5-(4-(trifluoromethoxy)piperidin-1-yl)pyrazine-2-carboxamide] the value was 40 to 200 nM.
For `COC1(C)CN(c2ncc(C(=O)Nc3c[nH]c4cc(F)c(F)cc34)cc2C)C1` [Compound 183, N-(5,6-difluoro-1H-indol-3-yl)-6-(3-methoxy-3-methylazetidin-1-yl)-5-methylnicotinamide] the value was 1000 to 5000 nM.
In the case of `COCCO[C@@H]1CCN(c2ncc(C(=O)Nc3c[nH]c4cc(F)c(F)cc34)cc2C)C1` [Compound 184, (R)-N-(5,6-difluoro-1H-indol-3-yl)-6-(3-(2-methoxyethoxy)pyrrolidin-1-yl)-5-methylnicotinamide], the EC50 was in the range of 1000 to 5000 nM.
`COCCO[C@@H]1CCN(c2ccc(C(=O)Nc3c[nH]c4cc(F)c(F)cc34)cc2F)C1` [Compound 185, (R)-N-(5,6-difluoro-1H-indol-3-yl)-3-fluoro-4-(3-(2-methoxyethoxy)pyrrolidin-1-yl)benzamide]: the EC50 was in the range of 200 to 1000 nM.
The value for `Cc1cc(C(=O)Nc2c[nH]c3cc(F)c(F)cc23)cc(C2CCCCC2)n1` [Compound 186, 2-cyclohexyl-N-(5,6-difluoro-1H-indol-3-yl)-6-methylisonicotinamide] was 1000 to 5000 nM; that for `O=C(Nc1c[nH]c2cc(F)c(F)cc12)c1ccc(C2(O)CCC(F)(F)CC2)cc1` [Compound 187, 4-(4,4-difluoro-1-hydroxycyclohexyl)-N-(5,6-difluoro-1H-indol-3-yl)benzamide] was 200 to 1000 nM; that for `N#Cc1cc(C(=O)Nc2c[nH]c3cc(F)c(F)cc23)ccc1N1CCC(F)(F)CC1` [Compound 188, 3-cyano-N-(5,6-difluoro-1H-indol-3-yl)-4-(4,4-difluoropiperidin-1-yl)benzamide] was 200 to 1000 nM.
For `O=C(Nc1c[nH]c2cc(F)c(F)cc12)c1cnc(N2CCC(C(F)(F)F)C2)c(Cl)c1` (stereo not shown) [Compound 189, 5-chloro-N-(5,6-difluoro-1H-indol-3-yl)-6-(3-(trifluoromethyl)pyrrolidin-1-yl)nicotinamide] the value was 200 to 1000 nM; for `O=C(Nc1c[nH]c2cc(F)ccc12)c1cnc(N2CCC(F)(F)CC2)c(Cl)c1` [Compound 190, 5-chloro-6-(4,4-difluoropiperidin-1-yl)-N-(6-fluoro-1H-indol-3-yl)nicotinamide], 200 to 1000 nM.
The value for `Cc1cc(C(=O)Nc2c[nH]c3cc(F)c(F)cc23)cnc1NCCCC(F)(F)F` [Compound 191, N-(5,6-difluoro-1H-indol-3-yl)-5-methyl-6-((4,4,4-trifluorobutyl)amino)nicotinamide] was 200 to 1000 nM; that for `O=C(Nc1c[nH]c2cc(F)ccc12)c1ccc(OCCCC(F)(F)F)c(F)c1` [Compound 192, 3-fluoro-N-(6-fluoro-1H-indol-3-yl)-4-(4,4,4-trifluorobutoxy)benzamide] was 200 to 1000 nM; that for `O=C(Nc1c[nH]c2cc(F)c(F)cc12)c1ccn(Cc2ccc(C(F)(F)F)cc2)c(=O)n1` [Compound 193, N-(5,6-difluoro-1H-indol-3-yl)-2-oxo-1-[[4-(trifluoromethyl)phenyl]methyl]pyrimidine-4-carboxamide] was 1000 to 5000 nM.
In the case of `COCCOc1cccc(C(=O)Nc2c[nH]c3cc(F)c(F)cc23)c1` [Compound 194, N-(5,6-difluoro-1H-indol-3-yl)-3-(2-methoxyethoxy)benzamide], the half-maximal effective concentration (EC50) is 200 to 1000 nM.
Consider `O=C(Nc1c[nH]c2cc(F)c(F)cc12)c1ccc(OCC2CC2)c(Cl)c1` [Compound 195, 3-chloro-4-(cyclopropylmethoxy)-N-(5,6-difluoro-1H-indol-3-yl)benzamide], for which the EC50 lay within 200 to 1000 nM.
For `O=C(Nc1c[nH]c2cc(F)c(F)cc12)c1ccc(OC2CCCCC2)cc1` [Compound 196, 4-(cyclohexyloxy)-N-(5,6-difluoro-1H-indol-3-yl)benzamide] the value was 200 to 1000 nM; for `O=C(Nc1c[nH]c2cc(F)c(F)cc12)c1ccc(OC(F)(F)F)nc1` [Compound 197, N-(5,6-difluoro-1H-indol-3-yl)-6-(trifluoromethoxy)pyridine-3-carboxamide], 200 to 1000 nM.
In the case of `CCOc1c(F)ccc(C(=O)Nc2c[nH]c3cc(F)c(F)cc23)c1F` [Compound 198, N-(5,6-difluoro-1H-indol-3-yl)-3-ethoxy-2,4-difluorobenzamide], the EC50 fell in the range of 200 to 1000 nM.
Consider `CCOc1cc(F)c(C(=O)Nc2c[nH]c3cc(F)c(F)cc23)c(F)c1` [Compound 199, N-(5,6-difluoro-1H-indol-3-yl)-4-ethoxy-2,6-difluorobenzamide], for which the concentration for a half-maximal effect (EC50) lay within 200 to 1000 nM.
For `COCc1cccc(-n2cc(-c3ccc4[nH]cc(NC(=O)c5ccc(OCCCC(F)(F)F)cc5)c4c3)cn2)c1` [Compound 200, N-(5-(1-(3-(methoxymethyl)phenyl)-1H-pyrazol-4-yl)-1H-indol-3-yl)-4-(4,4,4-trifluorobutoxy)benzamide] the value was 200 to 1000 nM.
